Assays:
[1] = system: C6; test: In vitro cytotoxicity against C6 rat glioma cell line; assay type: functional, cell-based
[2] = system: U-87 MG; test: In vitro cytotoxicity against HTB14 human glioma cell line; assay type: functional, cell-based, U-87MG ATCC
[3] = system: HeLa; test: In vitro cytotoxicity against HeLa human cervical carcinoma cell line; assay type: functional, cell-based
[4] = system: NHDF; test: In vitro cytotoxicity against normal human dermal fibroblast (NHDF) cell line; assay type: functional, cell-based
[5] = system: NB-4; test: In vitro cytotoxicity against NB4 leukemia cell line; assay type: functional, cell-based; conditions: Homo sapiens
[6] = system: T47D; test: In vitro cytotoxicity against T47D breast cancer cell line; assay type: functional, cell-based; conditions: Homo sapiens
[7] = system: T47D; test: Growth stimulating activity against T47D breast cancer cell line; growth stimulatory activity is observed.; assay type: functional, cell-based, Homo sapiens
[8] = system: NB-4; test: Growth stimulating activity against NB4 leukemia cell line; growth stimulatory activity is observed.; assay type: functional, cell-based, Homo sapiens

Row | Compound | IC50 [1] | IC50 [2] | IC50 [3] | IC50 [4] | IC50 [5] | IC50 [6] | IC50 [7] | IC50 [8]
1 | Cc1cn([C@H]2S[C@@H](CO)[C@H](O)[C@@H]2O)c(=O)[nH]c1=O | > 100 µM | 67.8 µM | 100 µM | > 100 µM | > 100 µM | > 100 µM | – | –
2 | Nc1nc(S)c2ncn([C@H]3S[C@@H](CO)[C@H](O)[C@@H]3O)c2n1 | > 100 µM | 62.1 µM | > 100 µM | > 100 µM | > 100 µM | – | Growth-stimulatory activity | –
3 | O=c1[nH]c(=O)n([C@H]2S[C@@H](CO)[C@H](O)[C@@H]2O)cc1F | > 100 µM | 41.5 µM | > 100 µM | > 100 µM | > 100 µM | > 100 µM | – | –
4 | Nc1nc(=O)n([C@H]2S[C@@H](CO)[C@H](O)[C@@H]2O)cc1F | > 100 µM | 83.3 µM | 95.9 µM | > 100 µM | – | – | Growth-stimulatory activity | Growth-stimulatory activity
